The values below come from publication PMC9654711, “Neuroprotective Action of Coumarin Derivatives through Activation of TRKB-CREB-BDNF Pathway and Reduction of Caspase Activity in Neuronal Cells Expressing Pro-Aggregated Tau Protein” (International Journal of Molecular Sciences, 2022).

Holding throughout (type): cell-based, human
For one assay, the system named is p-AKT (S473). Put plainly: Immunoblot of p-AKT (S473). Here is the method:
(§1) ∆K280 tauRD-DsRed SH-SY5Y cells in 6-well plates (5 × 10^5/well) were treated with retinoic acid (10 µM) on day 1, followed by LMDS-1 or -2 (10 µM) and doxycycline (2 µg/mL) addition on day 2 as described. ERK inhibitor U0126 or PI3K inhibitor wortmannin (10 μM) (LC Laboratories, Woburn, MA, USA) was added on day 6. On day 8, the cells were collected for BDNF, BCL2, BAX and total/phosphorylated TRKB, ERK, AKT, CREB protein analyses as described.
(§2) ∆K280 tauRD-DsRed SH-SY5Y cells were lysed in buffer containing 50 mM Tris-HCl (pH 8.0), 150 mM NaCl, 1 mM EDTA (pH 8.0), 1 mM EGTA (pH 8.0), 0.1% SDS, 0.5% sodium deoxycholate, 1% Triton X-100 and protease (Sigma-Aldrich)/phosphatase (Roche, Basel, Switzerland) inhibitor cocktails. After two sonications with an interval of 30 min on ice, cell lysates were collected by centrifugation at 14,000× g for 30 min at 4 °C. Protein concentrations were determined using a Bradford assay (Bio-Rad, Hercules, CA, USA). Protein samples (25 µg) were separated by 10–12% SDS-PAGE and transferred to polyvinylidene difluoride (PVDF) membranes (Sigma-Aldrich). After blocking for 2 h with 10% skimmed milk or 5% BSA in 0.1% Tween 20 in Tris-buffered saline (TBST), the membrane was incubated with primary antibody against BDNF (1:500; Santa Cruz, Santa Cruz, CA, USA), BCL2 (1:500; BioVision), BAX (1:500; BioVision), TRKB (1:1000; Cell Signaling, Danvers, MA, USA), p-TRKB (Y516) (1:1000; Cell Signaling), p-TRKB (Y817) (1:1000; Millipore, Billerica, MA, USA), ERK (1:1000; Cell Signaling), p-ERK (T202/Y204) (1:500; Cell Signaling), AKT (1:1000; Cell Signaling), p-AKT (S473) (1:1000; Cell Signaling), CREB (1:1000; Santa Cruz), p-CREB (S133) (1:1000; Millipore), JNK (1:1000; Cell Signaling), p-JNK (T183/Y185) (1:1000; Cell Signaling) or loading control glyceraldehyde-3-phosphate dehydrogenase (GAPDH) (1:1000; MDBio, Taipei, Taiwan). After three washes with TBST, the immune complexes were detected using horseradish peroxidase-conjugated goat anti-mouse or goat anti-rabbit secondary IgG antibody (1:5000, GeneTex, Irvine, CA, USA) and enhanced chemiluminescence substrates luminol and peroxide (Millipore). The primary and secondary antibodies used were diluted with TBST. The chemiluminescent detection was performed on ImageQuant™ LAS 4000mini (GE Healthcare).

The next assay has as its system CREB. Put plainly: Immunoblot of CREB. The conditions noted are these: 10 µM; induced untreated 83%. Here is the method:
as §1
(§3) ∆K280 tauRD-DsRed SH-SY5Y cells were lysed in buffer containing 50 mM Tris-HCl (pH 8.0), 150 mM NaCl, 1 mM EDTA (pH 8.0), 1 mM EGTA (pH 8.0), 0.1% SDS, 0.5% sodium deoxycholate, 1% Triton X-100 and protease (Sigma-Aldrich)/phosphatase (Roche, Basel, Switzerland) inhibitor cocktails. After two sonications with an interval of 30 min on ice, cell lysates were collected by centrifugation at 14,000× g for 30 min at 4 °C. Protein concentrations were determined using a Bradford assay (Bio-Rad, Hercules, CA, USA). Protein samples (25 µg) were separated by 10–12% SDS-PAGE and transferred to polyvinylidene difluoride (PVDF) membranes (Sigma-Aldrich). […] After three washes with TBST, the immune complexes were detected using horseradish peroxidase-conjugated goat anti-mouse or goat anti-rabbit secondary IgG antibody (1:5000, GeneTex, Irvine, CA, USA) and enhanced chemiluminescence substrates luminol and peroxide (Millipore). […]

In the next assay the test system is m-BDNF (13 kDa). Description: Immunoblot of m-BDNF. The conditions noted are these: 10 µM; induced untreated 69%. As for the experimental part:
as §1, §3

The next assay has as its system p-JNK (T183/Y185). Put plainly: Immunoblot of p-JNK (T183/Y185). To be noted: 10 µM; versus 107% untreated; p > 0.05. Here is the method: as §3
For a further assay, the system named is p-ERK (T202/Y204). Description: Immunoblot of p-ERK (T202/Y204). As for the experimental part: as §1, §2
For the next assay, the system named is p-CREB (S133). Put plainly: Immunoblot of p-CREB (S133). Here is the method: as §1, §2
The subject of the next assay is BCL2. Description: Immunoblot of BCL2. The conditions noted are these: 10 µM; induced untreated 73%. Here is the method:
as §1, §3

A further assay deals with p-TRKB (Y516 and Y817). Put plainly: Immunoblot of p-TRKB (Y516 and Y817). To be noted: for p-TRKB Y516 level / p-TRKB Y817 level: 10 µM; for p-TRKB Y516 level: induced untreated 67%; for p-TRKB Y817 level: induced untreated 74%; for p-TRKB (Y516/Y817) level: BDNF 100 ng/mL, LMDS-1/2 10 μM, induced untreated 77–83%, Figure 6B. Here is the method: as §1, §2
The subject of another assay is pro-BDNF (31 kDa). Put plainly: Immunoblot of pro-BDNF. The conditions noted are these: 10 µM; induced untreated 62%. Here is the method: as §1, §3
The mark [1] stands for this setting: 10 µM, induced untreated 78%, Figure 5C.
The mark [2] stands for this setting: BDNF 100 ng/mL, LMDS-1/2 10 μM, induced untreated 72%, Figure 6B.

For the compound `CCOc1ccc2cc(C(=O)c3ccccc3)c(=O)oc2c1` [LMDS-1], the p-AKT level in the assay on p-AKT (S473) (10 µM plus wortmannin 10 μM) is on record as 62–64%; with p-AKT (S473) (10 µM, induced untreated 72%) it was 96–100%. Moreover, the CREB level with CREB is reported as 98–101%. Besides, the m-BDNF level in the assay with m-BDNF (13 kDa) is on record as 97–102%. Also, in the assay on p-JNK (T183/Y185), the “p-JNK (T183/Y185) expression” value is 93–108%. The p-ERK level in the assay with p-ERK (T202/Y204) (10 µM plus U0126 10 μM) was 65–66%; in the assay with p-ERK (T202/Y204) (10 µM, induced untreated 76%), 101–102%. Moreover, the p-CREB level in the assay with p-CREB (S133) (setting [1]) was 105–108%; in the assay on p-CREB (S133) (setting [2]) it was 90–95%. In the assay with BCL2, the BCL2 level is 111–114%. Moreover, in the assay with p-TRKB (Y516 and Y817), the “p-TRKB Y516 level” value is 92–93%. For the same compound, the “p-TRKB Y817 level” value in the assay on p-TRKB (Y516 and Y817) is reported as 103–105%. The “p-TRKB (Y516/Y817) level” value with p-TRKB (Y516 and Y817) is listed as 96–104%. In addition, the pro-BDNF level in the assay on pro-BDNF (31 kDa) is 94–99%.
On to `O=C(c1ccccc1)c1cc2ccc(O)cc2oc1=O` [LMDS-2], for which the p-AKT level with p-AKT (S473) (10 µM plus wortmannin 10 μM) is recorded as 62–64%; with p-AKT (S473) (10 µM, induced untreated 72%) it was 96–100%. In addition, the CREB level with CREB is 98–101%. Besides, the m-BDNF level in the assay on m-BDNF (13 kDa) was 97–102%. The “p-JNK (T183/Y185) expression” value in the assay on p-JNK (T183/Y185) was 93–108%. Also, the p-ERK level with p-ERK (T202/Y204) (10 µM plus U0126 10 μM) is 65–66%; in the assay with p-ERK (T202/Y204) (10 µM, induced untreated 76%), 101–102%. Moreover, the p-CREB level is reported as 105–108% in the assay on p-CREB (S133) (setting [1]) and 90–95% with p-CREB (S133) (setting [2]). For the same compound, in the assay with BCL2, the BCL2 level was 111–114%. Further, in the assay on p-TRKB (Y516 and Y817), the “p-TRKB Y516 level” value is on record as 92–93%. The “p-TRKB Y817 level” value in the assay with p-TRKB (Y516 and Y817) is 103–105%. Besides, the “p-TRKB (Y516/Y817) level” value in the assay with p-TRKB (Y516 and Y817) is 96–104%. Also, in the assay with pro-BDNF (31 kDa), the pro-BDNF level is on record as 94–99%.
